According to ChEMBL document CHEMBL1201862, “PubChem BioAssay data set” (2004):
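Assay format: 96-well plates, 48-hour exposure. Abbreviation: GI50, concentration required for 50% inhibition of growth.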 The source made the active and inactive calls. Cut-off read from the data, not from the text of the source: active = GI50 up to about 1.1 µM and inactive = higher.

What was measured:
Test in all cases: NCI tumour cell line growth inhibition, 48 h
DLD-1 = system: DLD-1
DMS-114 = system: DMS-114
DMS-273 = system: DMS-273
KM-20L2 = system: KM-20L2
M19-MEL = system: M19-MEL
RXF 631 = system: RXF 631
SNB-78 = system: SNB-78
XF498 = system: XF498
LXFL 529 = system: LXFL 529

Measured: GI50

O=[N+]([O-])c1ccc(/C=N/C2CCCCC2)cc1
inactive: DLD-1 > 100 µM | DMS-114 > 100 µM | DMS-273 > 100 µM | KM-20L2 > 100 µM | M19-MEL > 100 µM | RXF 631 > 100 µM | SNB-78 > 100 µM | XF498 > 100 µM

COc1ccc2c(c1)c1c3n2CCNN=C3CCC1
inactive: DLD-1 > 100 µM | DMS-114 74.6 µM | DMS-273 > 100 µM | KM-20L2 > 100 µM | LXFL 529 > 100 µM | M19-MEL > 100 µM | RXF 631 68.4 µM | SNB-78 > 37.7 µM | XF498 > 100 µM

COC(=O)c1ccccc1OCc1cc(=O)oc2ccc(C)cc12
inactive: DLD-1 67.1 µM | DMS-114 89.3 µM | DMS-273 71.3 µM | KM-20L2 82.2 µM | LXFL 529 85.7 µM | M19-MEL > 100 µM | RXF 631 > 100 µM | XF498 31.8 µM

COc1cc(/C=C\c2ccccn2)cc(OC)c1OC
inactive: DLD-1 > 100 µM | DMS-114 45.6 µM | DMS-273 75 µM | KM-20L2 71.4 µM | LXFL 529 70.5 µM | M19-MEL 67.3 µM | RXF 631 > 100 µM | SNB-78 > 100 µM | XF498 16.2 µM

CC(=O)NC(CC(C)C)C(=O)NC(Cc1ccccc1)C(=S)N1CCCC1 (stereo unspecified)
inactive: DMS-114 > 100 µM | DMS-273 > 100 µM | KM-20L2 > 100 µM | LXFL 529 > 100 µM | M19-MEL > 100 µM | RXF 631 > 100 µM | XF498 > 100 µM

O=C(O)C1C2CCC(O2)C1C(=O)N1CCCCC1 (stereo unspecified)
inactive: DLD-1 15.6 µM | DMS-114 2 µM | DMS-273 10.6 µM | KM-20L2 2.65 µM | LXFL 529 5.02 µM | M19-MEL 9.1 µM | RXF 631 17.4 µM | SNB-78 16.7 µM

CCOC(=O)[C@H](CCCNC(=O)OC(C)(C)C)NCc1ccc(OC)c(OC)c1
inactive: DLD-1 > 100 µM | DMS-114 > 100 µM | DMS-273 > 100 µM | KM-20L2 > 100 µM | LXFL 529 > 100 µM | M19-MEL > 100 µM | RXF 631 > 100 µM | XF498 > 100 µM

O=C(NC1C=Nc2ccccc2NC1=O)c1ccccc1Cl (stereo unspecified)
inactive: DLD-1 59.2 µM | DMS-114 16.1 µM | DMS-273 26.8 µM | KM-20L2 55.6 µM | LXFL 529 28.6 µM | M19-MEL 57 µM | RXF 631 22 µM | SNB-78 93.1 µM | XF498 22.2 µM
